Laboratory results reported in patent US11208387B2, “Macrocyclic broad spectrum antibiotics” (Genentech, Inc., priority 2019, dated 2021).
In brackets after ≈: the same amount, converted by molar mass. Read-outs that look alike come from different tables or passages of the source.

Legend:
Assay in all cases: Serum MIC, broth micro-dilution
Assay type in all cases: cell-based
[1] = system: Acinetobacter baumannii ATCC 17978; conditions: Acinetobacter baumannii
Protocol: (§1) In vitro antimicrobial activity of each compound was determined by measuring minimal inhibitor concentrations (MICs) using the broth micro-dilution technique as approved by the Clinical and Laboratory Standards Institute (CLSI) (Methods for Dilution Antimicrobial Susceptibility Tests for Bacteria that Grow Aerobically; Approved Standard—Eighth Edition. CLSI document M07-A8. Wayne, Pa.: Clinical and Laboratory Standards; 2009). Antibacterial activity was measure against Escherichia coli strain ATCC 25922 (E. coli), Klebsiella pneumoniae ATCC 700603 (K. pneumoniae), Acinetobacter baumannii ATCC 17978 (A. baumannii), and Pseudomonas aeruginosa PA01 (P. aeruginosa), each of which is representative of a clinically relevant Gram-negative species. Cells were inoculated onto plates of Mueller Hinton Agar and grown at 37° C. for 16-18 hours. Inocula suspensions were prepared by scraping cells into 1 mL of testing media (Mueller Hinton II cation adjusted Broth) and diluting to a final OD 600 nm of 0.01.
(§2) Test compounds were prepared in DMSO at a concentration of […]. The compounds were tested under several different dilution formats. In protocol 1, the compound stocks were diluted into testing media at a concentration of 64 μg/ml and serial 2-fold dilutions were made in the same media, in 96-well U bottom microtiter dishes, for a total of 10 compound concentrations. In protocol 2, the compound stocks were diluted into testing media at a concentration of 4 μg/mL and serial 2-fold dilutions were made in the same media, in 96-well U bottom microtiter dishes, for a total of 10 compound concentrations. In protocol 3, compound stocks were diluted into testing media at a concentration of 0.5 μg/mL, with serial 2-fold dilutions conducted as described above. In protocol 4, compound stocks were diluted into testing media at a concentration of 0.13 μg/mL, with serial 2-fold dilutions conducted as described above. Inocula suspensions were added to the 2-fold serial dilutions of test compounds to a final density of OD 600 nm of 0.0005 and incubated at 35° C. for 22 hours. […] To assess antimicrobial activity in the presence of plasma proteins, MICs were also determined in growth media supplemented with 50% serum. Bacterial inocula and test compound dilution plates were prepared using the same protocol as described above for the standard MICs assay, with the exception that a mixture of 50% v/v Mueller Hinton II cation adjusted Broth and 50% v/v mouse sterile filtered serum (Equitech-Bio) was used in place of 100% Mueller Hinton II cation adjusted Broth. The results are listed in Table 3 (MIC, IC50 values micromolar).

[2] = system: Escherichia coli strain ATCC 25922; conditions: Escherichia coli
Protocol: as §1, §2

[3] = system: Klebsiella pneumoniae ATCC 700603; conditions: Klebsiella pneumoniae
Protocol: as §1, §2

[4] = system: Pseudomonas aeruginosa PA01; conditions: Pseudomonas aeruginosa
Protocol: as §1, §2

[5] = ATCC17978, 50% v/v mouse serum in Mueller Hinton II cation adjusted Broth, 35° C., 22 hours, Table 4, read-out: A. baumanii 17978 Serum MIC
[6] = ATCC17978, 50% v/v mouse serum in Mueller Hinton II cation adjusted Broth, 35° C., 22 hours, Table 5, read-out: Acinetobacter baumanii 17978 Serum MIC
[7] = ATCC25922, 50% v/v mouse serum in Mueller Hinton II cation adjusted Broth, 35° C., 22 hours, Table 4, read-out: E. coli 25922 Serum MIC
[8] = ATCC700603, 50% v/v mouse serum in Mueller Hinton II cation adjusted Broth, 35° C., 22 hours, Table 4, read-out: K pneumoniae 700603 Serum MIC
[9] = PA01, 50% v/v mouse serum in Mueller Hinton II cation adjusted Broth, 35° C., 22 hours, Table 4, read-out: P. aeruginosa 01 Serum MIC
[10] = ATCC17978, 50% v/v mouse serum, compounds of Table 1, Table 7, read-out: A. baumanii 17978 Serum MIC
[11] = ATCC25922, 50% v/v mouse serum, compounds of Table 1, Table 7, read-out: E. coli 25922 Serum MIC
[12] = ATCC700603, 50% v/v mouse serum, compounds of Table 1, Table 7, read-out: K. pneumoniae 700603 Serum MIC
[13] = PA01, 50% v/v mouse serum, compounds of Table 1, Table 7, read-out: P. aeruginosa 01 Serum MIC

MIC [1, 5] [µM]	MIC [1, 6] [µM]	MIC [2, 7] [µM]	MIC [3, 8] [µM]	MIC [4, 9] [µM]	Structure (SMILES)	further results
8 (≈ 7.7 µg/mL)	8 (≈ 7.7 µg/mL)	0.19 (≈ 0.183 µg/mL)	0.13 (≈ 0.125 µg/mL)	8 (≈ 7.7 µg/mL)	C[C@@H]1NC(=O)[C@@H](N(C)C(=O)[C@H](CCN)NC(=O)c2c(N)cc(-c3ccc(C(C)(C)C)cc3)nc2Cl)c2cc(OC[C@H](O)CN)c(O)c(c2)-c2cc(ccc2OC[C@H](O)CN)C[C@@H](C(=O)O)NC1=O [Example 51, (8S,11S,14S)-18-hydroxy-11-methyl-14-[methyl-[(2S)-4-amino-2-[[4-amino-6-(4-tert-butylphenyl)-2-chloro-pyridine-3-carbonyl]amino]-butanoyl]amino]-10,13-dioxo-3,17-bis[(2R)-3-amino-2-hydroxy-propoxy]-9,12-diazatricyclo-[13.3.1.12,6]icosa-1(18),2(20),3,5,15(19), 16-hexaene-8-carboxylic acid]	
16 (≈ 16.1 µg/mL)	16 (≈ 16.1 µg/mL)	1 (≈ 1.01 µg/mL)	1 (≈ 1.01 µg/mL)	16 (≈ 16.1 µg/mL)	Cc1nc(-c2ccc(C3CCC3)cc2)nc(N)c1C(=O)N[C@@H](CNS(N)(=O)=O)C(=O)N(C)[C@@H]1C(=O)N[C@@H](C)C(=O)N[C@H](C(=O)O)Cc2ccc(OC[C@H](O)CN)c(c2)-c2cc1cc(OC[C@H](O)CN)c2O [Example 41, (8S,11S,14S)-14-[[(2S)-2-[[4-amino-2-(4-cyclobutylphenyl)-6-methyl-pyrimidine-5-carbonyl]amino]-3-(sulfamoylamino)-propanoyl]-methyl-amino]-3,17-bis[(2R)-3-amino-2-hydroxy-propoxy]-18-hydroxy-11-methyl-10,13-dioxo-9,12-diazatri-cyclo[13.3.1.12,6]icosa-1(18),2(20),3,5,15(19), 16-hexaene-8-carboxylic acid]	
8 (≈ 7.95 µg/mL)	8 (≈ 7.95 µg/mL)	0.5 (≈ 0.497 µg/mL)	0.5 (≈ 0.497 µg/mL)	16 (≈ 15.9 µg/mL)	C[C@@H]1NC(=O)[C@@H](N(C)C(=O)[C@H](CNS(N)(=O)=O)NC(=O)c2cnc(-c3ccc(C(C)(C)C)cc3)nc2N)c2cc(OC[C@H](O)CN)c(O)c(c2)-c2cc(ccc2OC[C@H](O)CN)C[C@@H](C(=O)O)NC1=O [Example 46, (8S,11S,14S)-14-[[(2S)-2-[[4-amino-2-(4-tert-butylphenyl)-pyrimidine-5-carbonyl]amino]-3-(sulfamoylamino)-propanoyl]-methyl-amino]-3,17-bis[(2R)-3-amino-2-hydroxy-propoxy]-18-hydroxy-11-methyl-10,13-dioxo-9,12-diazatricyclo-[13.3.1.12,6]icosa-1(18),2(20),3,5,15(19), 16-hexaene-8-carboxylic acid]	
32 (≈ 33.2 µg/mL)	32 (≈ 33.2 µg/mL)	6 (≈ 6.22 µg/mL)	1.5 (≈ 1.56 µg/mL)	32 (≈ 33.2 µg/mL)	C[C@@H]1NC(=O)[C@@H](N(C)C(=O)[C@H](CNS(N)(=O)=O)NC(=O)c2cnn(-c3ccc(OC4CCCCC4)cc3)c(=O)c2)c2cc(OC[C@H](O)CN)c(O)c(c2)-c2cc(ccc2OC[C@H](O)CN)C[C@@H](C(=O)O)NC1=O [Example 9, (8S,11S,14S)-18-hydroxy-11-methyl-14-[methyl-[(2S)-2-[[1-[4-(cyclohexoxy)-phenyl]-6-oxo-pyridazine-4-carbonyl]amino]-3-(sulfamoylamino)-propanoyl]amino]-10,13-dioxo-3,17-bis[(2R)-3-amino-2-hydroxy-propoxy]-9,12-diazatricyclo-[13.3.1.12,6]icosa-1(18),2(20),3,5,15(19), 16-hexaene-8-carboxylic acid]	
					COc1c(OC[C@H](O)CN)cc2cc1-c1cc(ccc1OC[C@H](O)CN)C[C@@H](C(=O)NCC#N)NC(=O)[C@H](C)NC(=O)[C@H]2N(C)C(=O)[C@H](CCN)NC(=O)c1c(C)nc(-c2ccc(C(C)(C)C)cc2)nc1C (racemic) [Example 586]	MIC [1, 10]: 2 µM (≈ 1.99 µg/mL); MIC [2, 11]: 0.094 µM (≈ 0.0935 µg/mL); MIC [3, 12]: 0.094 µM (≈ 0.0935 µg/mL); MIC [4, 13]: 2 µM (≈ 1.99 µg/mL)
					Cc1nc(-c2ccc(C(C)(C)C)cc2)nc(C)c1C(=O)N[C@@H](CCN)C(=O)N(C)[C@@H]1C(=O)N[C@@H](C)C(=O)N[C@H](C(=O)O)Cc2cc(OCCN)c(O)c(c2)-c2cc1ccc2OCCN (racemic) [Example 563]	MIC ([1]; ATCC17978, read-out: A. baumanii 17978 Serum MIC): 64 µM (≈ 56.5 µg/mL); MIC ([2]; ATCC25922, read-out: E. coli 25922 Serum MIC): 0.75 µM (≈ 0.662 µg/mL); MIC ([3]; ATCC700603, read-out: K. pneumoniae 700603 Serum MIC): 0.75 µM (≈ 0.662 µg/mL); MIC ([4]; PA01, read-out: P. aeruginosa 01 Serum MIC): 64 µM (≈ 56.5 µg/mL)
16 (≈ 16.5 µg/mL)	16 (≈ 16.5 µg/mL)	1.5 (≈ 1.55 µg/mL)	1 (≈ 1.03 µg/mL)	6 (≈ 6.19 µg/mL)	Cc1c(C#N)c(-c2ccc(C(C)(C)C)cc2)nc(N)c1C(=O)N[C@@H](CNS(N)(=O)=O)C(=O)N(C)[C@@H]1C(=O)N[C@@H](C)C(=O)N[C@H](C(=O)O)Cc2ccc(OC[C@H](O)CN)c(c2)-c2cc1cc(OC[C@H](O)CN)c2O [Example 68, (8S,11S,14S)-14-[[(2S)-2-[[2-amino-6-(4-tert-butylphenyl)-5-cyano-4-methyl-pyridine-3-carbonyl]-amino]-3-(sulfamoyl-amino)propanoyl]-methyl-amino]-3,17-bis[(2R)-3-amino-2-hydroxy-propoxy]-18-hydroxy-11-methyl-10,13-dioxo-9,12-diazatricyclo-[13.3.1.12,6]icosa-1(19),2(20),3,5,15,17-hexaene-8-carboxylic acid]	
					C[C@@H]1NC(=O)[C@@H](N(C)C(=O)[C@H](CNS(N)(=O)=O)NC(=O)c2ncc(-c3ccc(C(C)(C)C)cc3)nc2N)c2cc(OC[C@H](O)CN)c(O)c(c2)-c2cc(ccc2OC[C@H](O)CN)C[C@@H](C(=O)O)NC1=O [Example 11, (8S,11S,14S)-18-hydroxy-11-methyl-14-[methyl-[(2S)-2-[[3-amino-5-(4-tert-butylphenyl)pyrazine-2-carbonyl]amino]-3-(sulfamoylamino)-propanoyl]amino]-10,13-dioxo-3,17-bis[(2R)-3-amino-2-hydroxy-propoxy]-9,12-diazatricyclo-[13.3.1.12,6]icosa-1(18),2(20),3,5,15(19), 16-hexaene-8-carboxylic acid]	MIC ([1]; ATCC17978, 22 h, read-out: A. baumanii 17978 Serum MIC): 16 µM (≈ 15.9 µg/mL); MIC ([1]; ATCC17978, 22 h, read-out: Acinetobacter baumanii 17978 Serum MIC): 16 µM (≈ 15.9 µg/mL); MIC ([2]; ATCC25922, 22 h, read-out: E. coli 25922 Serum MIC): 4 µM (≈ 3.98 µg/mL); MIC ([3]; ATCC700603, 22 h, read-out: K pneumoniae 700603 Serum MIC): 4 µM (≈ 3.98 µg/mL); MIC ([4]; PA01, 22 h, read-out: P. aeruginosa 01 Serum MIC): 64 µM (≈ 63.6 µg/mL)
					Cc1nc(-c2ccc(C(C)(C)C)cc2)nc(C)c1C(=O)N[C@@H](CCN)C(=O)N(C)[C@@H]1C(=O)N[C@@H](C)C(=O)N[C@H](C(=O)O)Cc2ccc(O)c(c2)-c2cc1ccc2OCCN (racemic) [Example 646]	MIC [1, 10]: 69 µM (≈ 56.8 µg/mL); MIC [2, 11]: 0.55 µM (≈ 0.453 µg/mL); MIC [3, 12]: 0.58 µM (≈ 0.477 µg/mL); MIC [4, 13]: 69 µM (≈ 56.8 µg/mL)
32 (≈ 30.1 µg/mL)	32 (≈ 30.1 µg/mL)	0.5 (≈ 0.47 µg/mL)	0.5 (≈ 0.47 µg/mL)	64 (≈ 60.2 µg/mL)	COc1c(OC[C@H](O)CN)cc2cc1-c1cc(ccc1OC[C@H](O)CN)C[C@@H](C(=O)O)NC(=O)[C@H](C)NC(=O)[C@H]2N(C)C(=O)[C@H](CCN)NC(=O)c1cnc(-c2ccc(C3(C)CC3)cc2)nc1C [Example 74, (8S,11S,14S)-3,17-bis[(2R)-3-amino-2-hydroxy-propoxy]-14-[[(2S)-4-amino-2-[[4-methyl-2-[4-(1-methylcyclopropyl)-phenyl]pyrimidine-5-carbonyl]amino]-butanoyl]-methyl-amino]-18-methoxy-11-methyl-10,13-dioxo-9,12-diazatri-cyclo[13.3.1.12,6]icosa-1(18),2(20),3,5,15(19), 16-hexaene-8-carboxylic acid]	
